Measured values taken from patent US12492179B2, “Substituted ethylamine fused heterocyclic mescaline derivatives” (Enveric Biosciences Canada Inc., priority 2022, dated 2025).

Columns and labels:
5-HT1A receptor [1] = molecular target: T1, 5-HT1A receptor (Homo sapiens, UniProt P08908); experiment: 5-HT1A receptor radioligand competition assay (SPA, 8-hydroxy-DPAT); type: binding; conditions: for 5-HT1A receptor binding, in words (competition curves FIGS. 22B-22L): ligand 3 nM to 1 mM
T1 construct: purchased Perkin Elmer 6110501400UA
T1 sequence (P08908 1-422): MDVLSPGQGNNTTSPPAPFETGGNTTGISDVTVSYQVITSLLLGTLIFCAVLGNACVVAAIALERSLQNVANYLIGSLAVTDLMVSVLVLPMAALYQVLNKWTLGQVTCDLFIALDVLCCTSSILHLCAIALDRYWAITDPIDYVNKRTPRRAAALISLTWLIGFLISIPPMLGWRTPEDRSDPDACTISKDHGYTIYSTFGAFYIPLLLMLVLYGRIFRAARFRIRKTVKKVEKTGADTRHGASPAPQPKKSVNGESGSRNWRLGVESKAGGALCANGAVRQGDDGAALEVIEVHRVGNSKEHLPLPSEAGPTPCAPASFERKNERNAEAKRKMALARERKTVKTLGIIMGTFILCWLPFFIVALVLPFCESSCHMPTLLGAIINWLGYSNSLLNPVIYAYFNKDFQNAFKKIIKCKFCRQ

5-HT2A receptor [2] = molecular target: T2, 5-HT2A receptor (Homo sapiens, UniProt P28223); experiment: 5-HT2A receptor radioligand competition assay (SPA, [3H]ketanserin); type: binding; conditions: for Ki: SPA competition, 1 nM [3H]ketanserin, membranes containing 5-HT2A; for 5-HT2A receptor binding, in words (competition curves FIGS. 23B-23H): ligand 3 nM to 1 mM
T2 construct: host or cells: HEK-293

5-HT1A receptor [3] = molecular target: T1, 5-HT1A receptor; experiment: Eurofins Cerep competition binding assay at 5-HT1A receptor; conditions: test ligand 10 μM; [3H]8-OH-DPAT 0.5 nM; recombinant receptor, HEK-293 membranes
5-HT2A receptor [4] = molecular target: T2, 5-HT2A receptor; type: binding; conditions: test ligand 10 μM; [125I](±)DOI 0.1 nM; recombinant receptor, HEK-293 membranes
5-HT2B receptor = molecular target: T3, 5-HT2B receptor (Homo sapiens, UniProt P41595); experiment: Eurofins Cerep competition binding assay at 5-HT2B receptor; conditions: test ligand 10 μM; [3H]mesulergine 2 nM; recombinant receptor, CHO membranes
T3 construct: host or cells: CHO

5-HT2C receptor = molecular target: T4, 5-HT2C receptor (Homo sapiens, UniProt P28335); experiment: Eurofins Cerep competition binding assay at 5-HT2C receptor; conditions: test ligand 10 μM; [125I](±)DOI 0.1 nM; recombinant receptor, HEK-293 membranes
T4 construct: host or cells: HEK-293
T4 sequence (P28335 33-458): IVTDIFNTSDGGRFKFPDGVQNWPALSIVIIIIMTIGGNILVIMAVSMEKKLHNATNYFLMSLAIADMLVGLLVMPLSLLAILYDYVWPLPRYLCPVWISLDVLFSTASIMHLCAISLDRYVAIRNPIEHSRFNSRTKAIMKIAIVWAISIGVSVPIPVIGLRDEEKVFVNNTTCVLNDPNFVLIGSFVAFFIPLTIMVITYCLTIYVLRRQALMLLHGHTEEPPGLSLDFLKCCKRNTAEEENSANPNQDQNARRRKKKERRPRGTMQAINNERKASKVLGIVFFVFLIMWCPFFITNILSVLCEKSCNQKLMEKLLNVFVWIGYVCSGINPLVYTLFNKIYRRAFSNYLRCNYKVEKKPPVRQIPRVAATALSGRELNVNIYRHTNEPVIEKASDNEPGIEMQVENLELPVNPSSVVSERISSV

alpha2A receptor = molecular target: T5, alpha2A receptor (Homo sapiens, UniProt P08913); experiment: Eurofins Cerep competition binding assay at alpha2A receptor; conditions: test ligand 10 μM; [3H]RX 821002 1 nM; recombinant receptor, CHO membranes; read-out: α-2A, percent of control-specific binding
T5 construct: host or cells: CHO
T5 sequence (P08913 1-465): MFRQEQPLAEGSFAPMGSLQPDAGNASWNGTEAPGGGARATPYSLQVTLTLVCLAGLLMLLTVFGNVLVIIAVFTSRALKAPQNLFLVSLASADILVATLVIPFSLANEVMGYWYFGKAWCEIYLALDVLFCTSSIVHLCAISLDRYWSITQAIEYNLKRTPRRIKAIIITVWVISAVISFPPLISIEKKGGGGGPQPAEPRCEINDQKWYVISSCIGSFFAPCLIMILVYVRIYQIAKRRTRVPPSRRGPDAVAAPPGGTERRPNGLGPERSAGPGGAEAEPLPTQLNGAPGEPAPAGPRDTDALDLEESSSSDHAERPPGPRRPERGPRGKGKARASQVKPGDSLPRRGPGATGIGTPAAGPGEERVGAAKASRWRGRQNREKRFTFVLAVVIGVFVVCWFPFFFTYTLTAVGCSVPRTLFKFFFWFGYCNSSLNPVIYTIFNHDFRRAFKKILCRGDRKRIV

D2 receptor = molecular target: T6, D2 receptor (Homo sapiens, UniProt P14416); experiment: Eurofins Cerep competition binding assay at D2 receptor; conditions: test ligand 10 μM; [3H]methylspiperone 0.3 nM; recombinant receptor, HEK-293 membranes
T6 construct: host or cells: HEK-293

D3 receptor = molecular target: T7, D3 receptor (Homo sapiens, UniProt P35462); experiment: Eurofins Cerep competition binding assay at D3 receptor; conditions: test ligand 10 μM; [3H]methylspiperone […]; recombinant receptor, CHO membranes
T7 construct: host or cells: CHO

MT1 receptor = molecular target: T8, MT1 receptor (Homo sapiens, UniProt P48039); experiment: Eurofins Cerep competition binding assay at MT1 receptor; conditions: test ligand 10 μM; [125I]2-iodomelatonin 0.01 nM; recombinant receptor, CHO membranes
T8 construct: host or cells: CHO

[5] = molecular target: T9, serotonin transporter (SERT) (Homo sapiens, UniProt P31645); type: binding
T9 construct: host or cells: CHO

[6] = molecular target: T10, dopamine transporter (DAT) (Homo sapiens, UniProt Q01959); experiment: Eurofins Cerep competition binding assay at dopamine transporter; conditions: test ligand 10 μM; [3H]BTCP 4 nM; recombinant transporter, CHO membranes
T10 construct: host or cells: CHO

[7] = molecular target: T11, norepinephrine transporter (NET) (Homo sapiens, UniProt P23975); experiment: Eurofins Cerep competition binding assay at norepinephrine transporter; conditions: test ligand 10 μM; [3H]nisoxetine 1 nM; recombinant transporter, CHO membranes
T11 construct: host or cells: CHO
T11 sequence (P23975 whole entry): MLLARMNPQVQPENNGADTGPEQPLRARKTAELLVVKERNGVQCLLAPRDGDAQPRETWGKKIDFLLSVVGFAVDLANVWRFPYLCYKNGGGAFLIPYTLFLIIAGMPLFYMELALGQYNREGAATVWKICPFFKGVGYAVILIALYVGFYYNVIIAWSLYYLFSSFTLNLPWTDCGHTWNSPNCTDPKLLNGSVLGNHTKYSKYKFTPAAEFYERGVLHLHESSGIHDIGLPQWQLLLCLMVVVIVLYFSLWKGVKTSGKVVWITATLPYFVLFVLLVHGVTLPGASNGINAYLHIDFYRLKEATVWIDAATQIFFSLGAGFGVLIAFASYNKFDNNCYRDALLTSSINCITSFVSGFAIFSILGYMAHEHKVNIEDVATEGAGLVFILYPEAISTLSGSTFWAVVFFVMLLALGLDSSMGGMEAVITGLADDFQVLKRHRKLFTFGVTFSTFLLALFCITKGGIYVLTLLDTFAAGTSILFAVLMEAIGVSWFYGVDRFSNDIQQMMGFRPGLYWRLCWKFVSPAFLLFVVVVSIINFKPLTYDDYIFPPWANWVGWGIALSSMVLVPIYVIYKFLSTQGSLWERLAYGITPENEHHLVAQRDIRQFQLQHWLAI

T2 sequence (P28223 whole entry): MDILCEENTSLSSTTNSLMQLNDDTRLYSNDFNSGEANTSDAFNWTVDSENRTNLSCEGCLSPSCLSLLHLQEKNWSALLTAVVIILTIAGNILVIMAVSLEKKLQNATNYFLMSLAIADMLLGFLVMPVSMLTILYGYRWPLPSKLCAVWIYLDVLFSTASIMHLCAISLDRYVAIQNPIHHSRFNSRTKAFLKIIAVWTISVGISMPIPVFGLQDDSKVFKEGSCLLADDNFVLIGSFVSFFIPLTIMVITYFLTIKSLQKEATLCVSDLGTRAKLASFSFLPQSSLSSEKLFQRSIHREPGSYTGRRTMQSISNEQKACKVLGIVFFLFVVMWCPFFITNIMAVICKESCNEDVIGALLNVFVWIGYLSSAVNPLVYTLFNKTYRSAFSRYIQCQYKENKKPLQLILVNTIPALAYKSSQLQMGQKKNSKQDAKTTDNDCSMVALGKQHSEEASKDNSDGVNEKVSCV
T6 sequence (P14416 1-414 isoform P14416-2): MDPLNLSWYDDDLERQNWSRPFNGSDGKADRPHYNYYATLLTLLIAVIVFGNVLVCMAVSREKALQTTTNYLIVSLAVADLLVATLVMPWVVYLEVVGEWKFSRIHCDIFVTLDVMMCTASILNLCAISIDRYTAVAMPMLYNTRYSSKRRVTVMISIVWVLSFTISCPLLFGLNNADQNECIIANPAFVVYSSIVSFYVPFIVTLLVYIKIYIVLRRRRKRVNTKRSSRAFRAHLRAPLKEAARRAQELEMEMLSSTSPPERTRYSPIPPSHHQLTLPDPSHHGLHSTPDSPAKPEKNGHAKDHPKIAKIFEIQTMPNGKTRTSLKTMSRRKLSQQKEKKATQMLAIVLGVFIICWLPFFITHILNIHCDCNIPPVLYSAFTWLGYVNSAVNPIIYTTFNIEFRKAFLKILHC
T9 sequence (P31645 whole entry): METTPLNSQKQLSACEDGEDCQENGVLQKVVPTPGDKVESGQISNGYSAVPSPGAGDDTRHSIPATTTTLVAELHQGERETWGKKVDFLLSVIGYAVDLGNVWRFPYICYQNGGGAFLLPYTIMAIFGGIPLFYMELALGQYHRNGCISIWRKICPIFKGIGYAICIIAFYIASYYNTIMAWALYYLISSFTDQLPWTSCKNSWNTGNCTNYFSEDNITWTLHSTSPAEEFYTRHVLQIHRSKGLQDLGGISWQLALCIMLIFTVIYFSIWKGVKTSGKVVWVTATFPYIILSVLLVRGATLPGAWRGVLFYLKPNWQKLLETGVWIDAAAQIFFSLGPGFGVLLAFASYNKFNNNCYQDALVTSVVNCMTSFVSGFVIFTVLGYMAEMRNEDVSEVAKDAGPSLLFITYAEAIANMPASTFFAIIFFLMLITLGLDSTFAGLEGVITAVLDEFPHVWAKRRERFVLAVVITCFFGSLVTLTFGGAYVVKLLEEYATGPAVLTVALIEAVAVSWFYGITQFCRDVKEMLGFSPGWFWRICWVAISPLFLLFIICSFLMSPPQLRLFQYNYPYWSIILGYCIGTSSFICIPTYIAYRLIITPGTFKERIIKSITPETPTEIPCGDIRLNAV
T8 sequence (P48039 whole entry): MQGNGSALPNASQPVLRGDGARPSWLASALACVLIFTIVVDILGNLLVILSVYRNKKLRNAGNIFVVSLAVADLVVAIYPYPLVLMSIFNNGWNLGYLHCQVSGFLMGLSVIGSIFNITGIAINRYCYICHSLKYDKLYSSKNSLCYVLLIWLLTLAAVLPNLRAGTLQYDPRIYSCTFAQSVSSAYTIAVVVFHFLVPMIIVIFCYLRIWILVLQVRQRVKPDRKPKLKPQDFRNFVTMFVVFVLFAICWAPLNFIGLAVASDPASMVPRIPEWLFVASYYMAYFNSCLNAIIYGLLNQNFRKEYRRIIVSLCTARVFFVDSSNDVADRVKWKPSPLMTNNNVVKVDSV
T3 sequence (P41595 whole entry): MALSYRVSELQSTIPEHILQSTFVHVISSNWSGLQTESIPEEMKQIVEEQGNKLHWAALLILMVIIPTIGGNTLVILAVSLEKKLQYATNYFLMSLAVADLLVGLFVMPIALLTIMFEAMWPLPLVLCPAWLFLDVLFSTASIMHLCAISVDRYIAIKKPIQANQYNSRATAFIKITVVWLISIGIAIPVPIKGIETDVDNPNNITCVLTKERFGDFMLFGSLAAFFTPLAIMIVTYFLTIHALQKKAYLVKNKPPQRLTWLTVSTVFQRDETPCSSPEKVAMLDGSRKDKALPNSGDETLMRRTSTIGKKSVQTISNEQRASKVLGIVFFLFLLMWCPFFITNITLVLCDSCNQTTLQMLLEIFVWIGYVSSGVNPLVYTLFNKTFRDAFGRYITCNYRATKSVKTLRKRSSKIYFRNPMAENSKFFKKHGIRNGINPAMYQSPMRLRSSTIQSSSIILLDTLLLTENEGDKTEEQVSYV
T7 sequence (P35462 whole entry): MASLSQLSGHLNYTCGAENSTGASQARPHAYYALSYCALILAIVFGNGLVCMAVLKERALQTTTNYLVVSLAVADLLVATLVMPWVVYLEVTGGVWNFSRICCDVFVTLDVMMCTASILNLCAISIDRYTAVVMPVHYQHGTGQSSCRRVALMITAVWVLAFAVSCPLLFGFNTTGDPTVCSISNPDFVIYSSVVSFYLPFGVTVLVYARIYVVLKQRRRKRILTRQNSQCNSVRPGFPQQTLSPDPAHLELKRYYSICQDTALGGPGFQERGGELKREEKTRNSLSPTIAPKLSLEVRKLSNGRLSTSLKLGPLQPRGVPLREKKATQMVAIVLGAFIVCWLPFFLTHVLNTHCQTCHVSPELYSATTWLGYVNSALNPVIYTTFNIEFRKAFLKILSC
T10 sequence (Q01959 whole entry): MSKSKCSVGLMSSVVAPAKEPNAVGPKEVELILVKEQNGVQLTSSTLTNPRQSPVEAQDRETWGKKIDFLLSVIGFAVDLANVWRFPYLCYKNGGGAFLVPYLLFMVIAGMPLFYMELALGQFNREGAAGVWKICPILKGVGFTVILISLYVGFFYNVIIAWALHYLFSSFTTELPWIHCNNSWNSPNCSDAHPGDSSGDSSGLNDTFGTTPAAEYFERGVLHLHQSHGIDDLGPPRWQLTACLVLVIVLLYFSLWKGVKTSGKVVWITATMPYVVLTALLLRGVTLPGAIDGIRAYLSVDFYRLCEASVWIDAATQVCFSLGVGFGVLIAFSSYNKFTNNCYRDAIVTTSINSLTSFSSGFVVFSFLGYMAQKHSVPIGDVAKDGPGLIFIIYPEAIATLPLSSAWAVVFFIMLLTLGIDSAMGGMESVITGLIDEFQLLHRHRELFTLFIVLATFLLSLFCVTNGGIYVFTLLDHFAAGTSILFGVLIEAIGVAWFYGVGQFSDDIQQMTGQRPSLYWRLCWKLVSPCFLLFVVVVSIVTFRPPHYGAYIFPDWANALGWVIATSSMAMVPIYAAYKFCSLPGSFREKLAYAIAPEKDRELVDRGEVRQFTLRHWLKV

Row | Structure (SMILES) | Ki (5-HT1A receptor [1]) [µM] | Ki (5-HT2A receptor [2]) [µM] | HT1A, percent of control-specific binding (5-HT1A receptor [3]) [%] | HT2A, percent of control-specific binding (5-HT2A receptor [4]) [%] | HT2B, percent of control-specific binding (5-HT2B receptor) [%] | HT2C, percent of control-specific binding (5-HT2C receptor) [%] | inhibition at 10 µM (alpha2A receptor) [%] | D2, percent of control-specific binding (D2 receptor) [%] | D3, percent of control-specific binding (D3 receptor) [%] | MT1, percent of control-specific binding (MT1 receptor) [%] | SERT, percent of control-specific binding [5] [%] | DAT, percent of control-specific binding [6] [%] | NET, percent of control-specific binding [7] [%] | 5-HT1A receptor binding, in words (competition curves FIGS. 22B-22L) (5-HT1A receptor [1]) | 5-HT2A receptor binding, in words (competition curves FIGS. 23B-23H) (5-HT2A receptor [2])
1 | CC(C(=O)N1CCCC1)c1ccc2c(c1)OCO2 (racemic) [Ax(II)] | 108 | 591 | 3 | 0 | 5 | 0 | 0 | 0 | 0 | 5 | 2 | 5 | 0 |  | 
2 | CC(C(=O)N(C)Cc1ccccc1)c1ccc2c(c1)OCO2 (racemic) [Ax(V)] | 186 | 83 | 2 | 2 | 30 | 16 | 0 | 0 | 8 | 55 | 0 | 71 | 13 |  | 
3 | CC(CN1CCCC1)c1ccc2c(c1)OCO2 (racemic) [Bx(II)] | 14 |  | 36 | 10 | 38 | 52 | 19 | 6 | 14 | 0 | 81 | 79 | 9 |  | 
4 | CC(CN(C)Cc1ccccc1)c1ccc2c(c1)OCO2 (racemic) [Bx(V)] | 45 | 63 | 17 | 13 | 41 | 42 | 24 | 12 | 19 | 9 | 46 | 78 | 47 | above levels observed for negative controls | above levels observed for negative control
5 | COc1cc(CCN)c(OC)cc1Br [2C-B, reference compound] |  |  |  |  |  |  |  | 42 |  |  |  |  |  |  | 
6 | c1cc2c(cc1CC1=NCCO1)OCO2 [C(III)] | 31 |  | 24 | 0 | 19 | 12 | 19 | 0 | 10 | 12 | 0 | 19 | 0 |  | 
7 | COc1cc(CC(C)N)c(OC)cc1Br (stereo not drawn) [DOB, reference compound] |  |  |  |  |  |  |  | 9 |  |  |  |  |  |  | 
8 | CN(C)CCCN1c2ccccc2CCc2ccccc21 [Imipramine, imipramine, reference compound] |  |  |  |  |  |  |  |  |  |  | 98 |  |  |  | 
9 | CNC(C)Cc1ccc2c(c1)OCO2 (stereo not drawn) [MDMA, reference compound] |  |  |  |  |  |  |  | −10 |  |  |  |  |  |  | 
10 | CCOc1c(OC)cc(CCN)cc1OC [escaline] |  |  |  |  |  |  |  | 5 |  |  |  |  |  | binding to 5-HT1A receptor | 
11 | CCCOc1c(OC)cc(CCN)cc1OC [proscaline, reference compound] |  |  |  |  |  |  |  |  |  |  |  |  |  | binding to 5-HT1A receptor | 
12 | CN(C)CCc1c[nH]c2cccc(O)c12 [psilocin, reference compound] |  |  |  |  |  |  |  |  |  |  |  |  |  |  | binding at the 5-HT2A receptor
13 | N[C@@H](Cc1c[nH]c2ccccc12)C(=O)O [tryptophan, reference compound] |  |  |  |  |  |  |  |  |  |  |  |  |  | no binding | lack of binding at the 5-HT2A receptor
